# According to the supplement of paper PMC13380429:
# Key:
# Conditions in all cases: 72 h
# U2OS [1] = assay: drug sensitivity score (DSS) for viability; higher = more toxic; extreme values may be limits of the assay
# HepG2 [2] = assay: as above
# Vero E6 [3] = assay: as above
# Caco-2 [4] = assay: as above
# U2OS [5] = assay: cell viability relative to DMSO; higher = less toxic
# HepG2 [6] = assay: as above
# Vero E6 [7] = assay: as above
# Caco-2 [8] = assay: as above
# U2OS [9] = assay: relative viability EC50 (midpoint between 100% and the lowest measured viability); higher = less toxic
# HepG2 [10] = assay: as above
# Vero E6 [11] = assay: as above
# Caco-2 [12] = assay: as above
# Calu-3 [13] = assay: drug sensitivity score (DSS) for viability; higher = more toxic; extreme values may be limits of the assay
# Calu-3 [14] = assay: cell viability relative to DMSO; higher = less toxic
# Calu-3 [15] = assay: relative viability EC50 (midpoint between 100% and the lowest measured viability); higher = less toxic
Structure (SMILES),drug sensitivity score (U2OS [1]),drug sensitivity score (HepG2 [2]),drug sensitivity score (Vero E6 [3]),drug sensitivity score (Caco-2 [4]),cell viability (U2OS [5]; 1 nM) [%],cell viability (U2OS [5]; 10 nM) [%],cell viability (U2OS [5]; 100 nM) [%],cell viability (U2OS [5]; 1000 nM) [%],cell viability (U2OS [5]; 10000 nM) [%],cell viability (HepG2 [6]; 1 nM) [%],cell viability (HepG2 [6]; 10 nM) [%],cell viability (HepG2 [6]; 100 nM) [%],cell viability (HepG2 [6]; 1000 nM) [%],cell viability (HepG2 [6]; 10000 nM) [%],cell viability (Vero E6 [7]; 1 nM) [%],cell viability (Vero E6 [7]; 10 nM) [%],cell viability (Vero E6 [7]; 100 nM) [%],cell viability (Vero E6 [7]; 1000 nM) [%],cell viability (Vero E6 [7]; 10000 nM) [%],cell viability (Caco-2 [8]; 1 nM) [%],cell viability (Caco-2 [8]; 10 nM) [%],cell viability (Caco-2 [8]; 100 nM) [%],cell viability (Caco-2 [8]; 1000 nM) [%],cell viability (Caco-2 [8]; 10000 nM) [%],relative viability EC50 (U2OS [9]) [µM],relative viability EC50 (HepG2 [10]) [µM],relative viability EC50 (Vero E6 [11]) [µM],relative viability EC50 (Caco-2 [12]) [µM],drug sensitivity score (Calu-3 [13]),cell viability (Calu-3 [14]; 1 nM) [%],cell viability (Calu-3 [14]; 10 nM) [%],cell viability (Calu-3 [14]; 100 nM) [%],cell viability (Calu-3 [14]; 1000 nM) [%],cell viability (Calu-3 [14]; 10000 nM) [%],relative viability EC50 (Calu-3 [15]) [µM]
O[C@@H](CN1CCNCC1)Cn1c2ccc(Br)cc2c2cc(Br)ccc21 [BAX-channel-blocker],6.3,6.3,6.6,7,97.6,102,97.8,93.9,3.8,91.2,102,90.4,95,0.2,101,96.5,96.1,92.9,0.2,100,104,93.6,87.7,10.4,2.66,2.78,2.59,2.06,,,,,,,
O=C(O)c1ccc2cc(-c3ccc(O)c(C45CC6CC(CC(C6)C4)C5)c3)ccc2c1 [CD-437],7.5,9.9,4.2,9.5,101,100,98.7,84.7,9.8,108,95.4,105,48.8,29.3,107,99.1,104,87.6,54.7,99.4,92.8,89.4,56.2,36.8,1.88,0.685,,0.436,6.5,92.7,101,93.3,85.7,24.4,1.79
Fc1ccccc1CNCc1ccc(-c2ccnc3[nH]ccc23)cc1 [OXA-06],1.8,0,0.4,0,98.6,102,96.8,97.2,69.8,105,90.4,108,107,86.9,103,95.6,97.3,97.6,85.4,91.3,103,91.5,101,90.2,,> 10,> 10,> 10,0,111,106,100,139,139,> 10
C[C@H](Nc1cc2c(-c3ccc4c(c3)OCO4)noc2cn1)c1ccccc1 [TC-S-7005],,0,0,0,,,,,,106,120,100,91.6,99,97.4,96.2,98.8,90.5,108,96.5,105,107,101,97.9,,> 10,> 10,> 10,0,106,98,105,97.2,107,> 10
Oc1c(CN2CCCC2)cc(COCc2ccccc2)c2cccnc12 [UC-112],4.9,7.5,10.9,9.4,97.6,91.1,94,88.9,43.1,97.5,94.5,96.2,81.6,16.6,97.8,95.3,94,51.7,6.8,92.2,95.9,99.1,73,3.6,1.76,1.66,0.927,1.46,1,97.7,94.8,108,107,69.5,
O=C(COc1ccc(C(=O)c2ccccc2)cc1)NC1CCN(Cc2ccccc2)CC1 [adiporon],0,0,0,0,96.4,93.2,100,98.1,95.7,92.1,94.3,94.8,107,85.4,97.1,98.2,93.8,96.9,101,95.2,92.7,99,91.6,91.9,> 10,> 10,> 10,> 10,,,,,,,
Cc1ccc(NC(=O)c2ccc(CN3CC[C@H](N(C)C)C3)c(C(F)(F)F)c2)cc1Nc1nccc(-c2cncnc2)n1 [bafetinib],0.7,6.9,0.9,0.5,99.9,101,103,99.4,79,98.4,89.2,91,85.1,19.5,96.7,98.1,96.5,99.7,76.1,97.1,108,92.9,104,79,> 10,1.8,> 10,> 10,1,98.7,107,98.8,99.9,74.8,
O=S(=O)(O)c1cc(I)c(O)c2ncccc12 [chiniofon],,0,,0,,,,,,111,102,104,102,99,,,,,,107,101,95.4,104,94.8,,> 10,,> 10,0,98.2,102,94.6,95.9,93.6,> 10
